Values joined by “and” are separate entries in the source; they are usually repeats but may differ in a detail not shown here. Equal entries are not always repeated. Structures can show the parent of a compound that is named as a salt. Where two headings read alike, the source gives them in different places.
Experiments:
[1] = system: OVCAR3-RFP human ovarian cancer cells; experiment: sulforhodamine B (SRB) assay, dosage curves and IC50; format: cell-based; details: 72 h treatment; for IC50: Homo sapiens, 72 h
Procedure: Example 1. Determination of paclitaxel […] in TSD-001-treated human ovarian cancer cells. A sulforhodamine B (SRB) assay-based approach was employed to determine the inhibitory concentration (IC)50 of paclitaxel against OVCAR3-RFP human ovarian cancer cells (Anticancer Inc.) treated with the TSD-001 paclitaxel liposomal formulation (Paclitaxel:DMPC:DMPG=1:1.43:0.567). For use in the assay, lyophilized TSD-001 was reconstituted in sterile injectable-grade water to a concentration of 6 mg/mL and subsequently serially diluted in RPMI cell culture medium (RPMI-1640 with L-glutamine, Corning). Three separate dosage curve assays were performed. In two of the assays, the serial dilutions of TSD-001 ranged from 0.05 μg/mL to 0.391 ng/mL, and in the third assay, the serial dilutions of TSD-001 ranged from 0.0128 μg/mL to 2.147 ng/mL.
Serial dilutions of the Abraxane® paclitaxel formulation (nanoparticle albuminbound paclitaxel) and doxorubicin HCl were also prepared to perform comparative dosage curve assays in OVCAR3-RFP cells. For these assays, lyophilized Abraxane® was dissolved in RPMI medium to a concentration of 1 mg/mL, and doxorubicin HCl was dissolved in a small amount of DMSO, and the diluted in RPMI medium to a concentration of 1 mg/mL. Three separate dosage curve assays were performed for Abraxane®. In one assay, the serial dilutions of Abraxane® ranged from 0.04 μg/mL to 0.078 ng/mL. In the second assay, the serial dilutions of Abraxane® ranged from 0.04 μg/mL to 8.39 ng/mL and in the third assay, the serial dilutions of Abraxane® ranged from 0.032 μg/mL to 8.39 ng/mL. […]
OVCAR3-RFP cells were seeded onto 96-well clear flat-bottom polystyrene tissue culture plates (Corning) at a density of approximately 5×10^3 cells/well in 200 μl of RPMI. […] Protein-bound SRB was detected by adding 200 μl 10 mM Tris base solution (pH 10.5) to each well, followed by placing the plate(s) on a byratory shaker for 5 minutes to allow the Tris solution to solubilize SRB. The plates were read using a microplate reader at an absorbance of 510 nm. […]

ovarian cancer [2] = details: cited from earlier work
[3] = cited from earlier work
ovarian cancer [4] = details: intraperitoneal cisplatin regimen, versus 41 months, p=0.02; cited from earlier work

COc1cccc2c1C(=O)c1c(O)c3c(c(O)c1C2=O)C[C@@](O)(C(=O)CO)C[C@@H]3O[C@H]1C[C@H](N)[C@H](O)[C@H](C)O1 [doxorubicin HCl]
IC50 ([1]; Table 1, combined data, read-out: Mean IC50 (μg/mL) against OVCAR3-RFP cells (n ≥ 5)): 0.191 ± 0.0835 µg/mL
IC50 ([1]; single dosage curve assay, n=3 or 4 wells/concentration, read-out: IC50 at 72 h.): 0.17 µg/mL
IC50 at 72 h. ([1]; single dosage curve assay, n=3 or 4 wells/concentration, HCl): 0.1322 µg/mL and 0.166 µg/mL

CC(=O)O[C@H]1C(=O)[C@@]2(C)[C@H]([C@H](OC(=O)c3ccccc3)[C@]3(O)C[C@H](OC(=O)[C@H](O)[C@@H](NC(=O)c4ccccc4)c4ccccc4)C(C)=C1C3(C)C)[C@]1(OC(C)=O)CO[C@@H]1C[C@@H]2O [paclitaxel]
surgical complete response (ovarian cancer [2]; intraperitoneal 60 mg/m^2 per week for 16 weeks, microscopic residual patients): 61%
complete response (ovarian cancer [2]; intraperitoneal 60 mg/m^2 per week for 16 weeks, women with macroscopic residual cancer): one of the 31
dose-limiting toxicity (ovarian cancer [2]; intraperitoneal use, Phase 1 study): abdominal pain
peritoneal cavity exposure to greater concentrations than possible with systemic therapy delivery ([3]; intraperitoneal versus systemic delivery): greater than 1000 fold

N.N.[Cl][Pt][Cl] [cisplatin, Cis-diamminedichloroplatinum(10)]
overall survival median (ovarian cancer [4]): 49 months
peritoneal cavity exposure to greater concentrations than possible with systemic therapy delivery ([3]; in vivo, ip): 10-20 fold

Reference: patent publication US20220000777A1, “LIPOSOMAL ENHANCED INTRA-PERITONEAL CHEMOTHERAPY” (TESORX PHARMA, LLC, priority 2018, published 2022)
